Data from US20200199537A1, “LIVER ORGANOID COMPOSITIONS AND METHODS OF MAKING AND USING SAME” (Children's Hospital Medical Center, priority 2017, published 2020).
Like-named read-outs stand apart in the source and are kept apart here.

Tests used:
MRP2 = MRP2 (Homo sapiens, UniProt Q92887); conditions: previously reported; cited from earlier work
[1] = system: bile transport activity (efflux of fluorescein diacetate) in human liver organoids
Method: To quantify the inhibitory potential for FD excretion, Applicant developed a simple but robust quantification method by determining the fluorescent intensity ratio between outside and inside the organoid by image J (FIG. 4, panel B).
Fluorescein diacetate was used for evaluating bile transport activity in organoids. Around Day 25, the organoids were rinsed with PBS, and, fluorescein diacetate was treated to organoids in medium. […] After treatment or injection of fluorescein diacetate, images were captured on fluorescent microscopy BZ-X710 (Keyence). […] Changes in brightness or contrast during processing were applied equally across the entire image.

[2] = system: CLF excretion into iPSC-liver organoids; conditions: human
Description: To test the clinical relevance of organoid based cholestatic phenotyping method, Applicant employed pharmacogenomics insights into Applicant's system to address the fidelity question.

[3] = system: lipotoxic human liver organoids; assay: Evaluation of viability in organoids on vulnerable (lipotoxic, oleic acid) condition; assay type: cell-based
Method: Next, 50 μM of Troglitazone was treated with or without 50 μM NAC for 24 h. […] Images were captured sequentially using fluorescent microscopy BZ-9000.

human liver organoids [4] = assay: Lipid accumulation in organoids after oleic acid treatment; assay type: cell-based; conditions: 3 days after treatment, 800 μM
Method: Images were captured sequentially using fluorescent microscopy BZ-9000. […] The following regents or kits were used: BODIPY® 493/503 for lipids (Thermo Fisher Scientific), and SiR Actin Kit for cytoskeleton (USA Scientific, FL, USA), CellROX® Green Reagent for ROS (Fisher Scientific), TMRM (Thermo Fisher Scientific) for mitochondria. […] ROS production, mitochondria size and number were analyzed by IMARIS8.

human liver organoids [5] = conditions: for cell viability: human, 50 μM

Chain of MRP2 (Q92887 whole entry): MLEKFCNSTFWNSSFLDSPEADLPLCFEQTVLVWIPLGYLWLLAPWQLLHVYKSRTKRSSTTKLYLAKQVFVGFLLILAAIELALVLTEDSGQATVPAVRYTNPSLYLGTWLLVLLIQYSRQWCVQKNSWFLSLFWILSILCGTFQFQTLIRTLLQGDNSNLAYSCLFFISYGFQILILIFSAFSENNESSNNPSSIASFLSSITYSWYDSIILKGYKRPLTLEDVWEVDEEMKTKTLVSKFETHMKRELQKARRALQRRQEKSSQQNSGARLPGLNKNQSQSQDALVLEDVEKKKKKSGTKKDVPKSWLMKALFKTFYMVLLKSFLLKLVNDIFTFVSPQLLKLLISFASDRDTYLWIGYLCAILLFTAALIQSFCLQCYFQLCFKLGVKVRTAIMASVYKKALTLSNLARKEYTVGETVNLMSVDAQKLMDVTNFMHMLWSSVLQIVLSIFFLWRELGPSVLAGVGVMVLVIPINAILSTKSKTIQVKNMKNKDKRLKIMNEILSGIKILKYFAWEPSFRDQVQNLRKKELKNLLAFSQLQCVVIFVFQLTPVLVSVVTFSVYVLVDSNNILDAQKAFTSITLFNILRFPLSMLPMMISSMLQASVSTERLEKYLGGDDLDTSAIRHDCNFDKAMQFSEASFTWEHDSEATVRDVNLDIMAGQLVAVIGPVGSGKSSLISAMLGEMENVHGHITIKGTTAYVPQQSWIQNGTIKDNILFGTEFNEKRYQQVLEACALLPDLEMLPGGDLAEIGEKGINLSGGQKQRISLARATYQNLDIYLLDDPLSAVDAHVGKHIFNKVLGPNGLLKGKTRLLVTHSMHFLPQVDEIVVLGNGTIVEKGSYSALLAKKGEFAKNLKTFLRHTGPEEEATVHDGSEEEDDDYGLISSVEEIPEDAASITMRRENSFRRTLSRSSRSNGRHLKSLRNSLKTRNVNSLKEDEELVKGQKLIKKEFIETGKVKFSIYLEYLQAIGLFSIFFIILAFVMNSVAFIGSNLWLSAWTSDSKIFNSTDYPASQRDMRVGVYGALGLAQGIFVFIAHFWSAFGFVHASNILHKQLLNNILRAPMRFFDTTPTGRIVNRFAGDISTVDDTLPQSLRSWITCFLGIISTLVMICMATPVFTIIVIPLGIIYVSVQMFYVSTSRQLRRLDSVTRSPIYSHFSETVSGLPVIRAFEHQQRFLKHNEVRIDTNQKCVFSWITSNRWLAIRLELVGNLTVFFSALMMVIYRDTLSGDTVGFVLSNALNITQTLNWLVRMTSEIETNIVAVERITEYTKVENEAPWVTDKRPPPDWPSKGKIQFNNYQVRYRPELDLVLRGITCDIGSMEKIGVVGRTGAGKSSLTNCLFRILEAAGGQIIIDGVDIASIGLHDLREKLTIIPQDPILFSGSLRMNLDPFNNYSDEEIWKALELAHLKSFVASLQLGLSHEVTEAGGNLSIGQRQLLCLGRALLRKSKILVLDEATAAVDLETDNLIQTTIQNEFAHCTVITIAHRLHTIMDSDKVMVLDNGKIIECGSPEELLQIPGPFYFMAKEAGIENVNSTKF

In the case of COc1ccccc1Oc1c(NS(=O)(=O)c2ccc(C(C)(C)C)cc2)nc(-c2ncccn2)nc1OCCO [Bosentan], the “export by efflux transporter MRP2” value (MRP2) is given as “mediates export”, the “efflux of FD” value [1] is given as “significantly decreased” and the “specificity of drug induced cholestasis to CYP2C9*2 iPSC lines” value [2] is given as “specific to CYP2C9 poor metabolizer donor-derived HLO”.
For CN(CCOc1ccc(CC2SC(=O)NC2=O)cc1)c1ccccn1 (centres unmarked) [Rosiglitazone], the “vulnerability of steatotic organoids to drug toxicity” value [3] was “vulnerable”.
For CCCCCCCC/C=C\CCCCCCCC(=O)O [oleic acid], the “lipid accumulation in organoids” value (human liver organoids [4]) was “intense”.
In the case of CC(=O)N[C@@H](CS)C(=O)O [NAC, N-acetylcysteine], the “cell viability (rescue from Troglitazone toxicity)” value ([3]; lipotoxic condition, 50 μM Troglitazone with 50 μM NAC, 24 h) is reported as “significantly improved”.
In the case of CCc1nn(CCCN2CCN(c3cccc(Cl)c3)CC2)c(=O)n1CCOc1ccccc1 [Nefazodone], the “efflux of FD” value [1] is reported as “significantly decreased” and the “cell viability relative to TOL, DICLO and BOS” value (human liver organoids [5]) is reported as “significantly lowered”.
For Cc1c(C)c2c(c(C)c1O)CCC(C)(COc1ccc(CC3SC(=O)NC3=O)cc1)O2 (centres unmarked) [Troglitazone], the “efflux of FD” value [1] was “significantly decreased”, the “cell viability relative to TOL, DICLO and BOS” value (human liver organoids [5]) was “significantly lowered” and the cell viability (human liver organoids [5]; 24 h) was 85%. The cell viability (human liver organoids [5]; 72 h) was 67%, the “cell viability compared to control” value ([3]; lipotoxic condition (800 μM oleic acid 3 days), 50 μM drug, 24 h) was −40% and the “organoid morphology after treatment” value ([3]; lipotoxic condition, 24 h) was “massive fragmentation of organoids”.
